Laboratory results from patent US7915012B2, “Methods for screening for inhibitors of TRPV2 activation” (Korea University Industry and Academic Collaboration …, priority 2008, dated 2011).
Entries after “also recorded” stand apart in the source; their conditions may differ.

Assays:
Type in all cases: cell-based
rTRPV2 = target: T1, rTRPV2 (Rattus norvegicus, UniProt Q9WUD2, A713V/L151P/T158I); assay: Whole-cell voltage-clamp recording in TRPV2 transfected HEK293T cell line; details: 100 μM probenecid; +60 mV and −60 mV; n=5
T1 construct: expressed in transfected cells; host or cells: HEK293T (ATCC CRL-11268)
T1 sequence (Q9WUD2 1-761 L151P/T158I/A713V): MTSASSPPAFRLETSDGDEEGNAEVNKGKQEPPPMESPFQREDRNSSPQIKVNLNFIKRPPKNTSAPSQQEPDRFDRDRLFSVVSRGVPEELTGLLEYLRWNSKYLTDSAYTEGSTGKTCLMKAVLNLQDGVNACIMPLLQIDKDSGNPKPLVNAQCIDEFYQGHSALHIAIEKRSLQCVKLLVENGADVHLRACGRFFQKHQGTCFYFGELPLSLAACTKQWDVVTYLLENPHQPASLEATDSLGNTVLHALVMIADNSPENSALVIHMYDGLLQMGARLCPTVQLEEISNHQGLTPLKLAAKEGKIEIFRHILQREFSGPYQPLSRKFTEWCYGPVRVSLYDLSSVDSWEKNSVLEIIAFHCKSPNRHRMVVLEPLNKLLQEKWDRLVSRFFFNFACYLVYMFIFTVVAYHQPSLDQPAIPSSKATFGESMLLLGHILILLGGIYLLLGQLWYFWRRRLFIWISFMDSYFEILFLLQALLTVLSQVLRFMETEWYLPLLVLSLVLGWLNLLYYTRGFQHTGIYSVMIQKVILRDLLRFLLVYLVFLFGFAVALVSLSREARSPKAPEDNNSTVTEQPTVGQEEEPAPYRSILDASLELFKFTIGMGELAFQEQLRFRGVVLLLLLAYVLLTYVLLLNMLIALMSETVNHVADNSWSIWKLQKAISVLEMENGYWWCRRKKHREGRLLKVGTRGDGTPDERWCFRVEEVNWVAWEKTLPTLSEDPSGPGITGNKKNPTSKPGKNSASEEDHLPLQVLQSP
Method: (§1) HEK293T cell line (ATCC CRL-1 1268) was transiently transfected with plasmid DNA containing polynucleotide encoding […] (SEQ. ID. NO: 1), rTRPV2 (SEQ. ID. NO: 2), mTRPV3 (SEQ. ID. NO: 3), rTRPV4 (SEQ. ID. NO: 4), mTRPM8 (SEQ. ID. NO: 5) or mTRPA1 (SEQ. ID. NO: 6).
(§2) Particularly, the HEK293T cell line was transiently transfected with individual TRP channel plasmid (pcDNA3.1 containing polynucleotide encoding rTRPV1, rTRPV2, mTRPV3, rTRPV4, mTRPM8 or mTRPA1), and 600 ng/well of pCDNA3 (Invitrogen Corp., USA; containing green fluorescent protein (GFP) cDNA) using Fugene6 (Roche Diagnostics, USA) according to manufacturer's instruction. The transformed cells were cultured in DMEM/F12 containing 10% FBS and 1% penicillin/streptomycin in a CO2 incubator for 24 hours. The cells were replated onto poly-L-lysine-coated glass coverslips, followed by further culture for 10-24 hours.
The TRPV2 transfected cell line prepared in Example 1 was treated with 100 μM probenecid (Sigma-Aldrich, USA) and 300 μM 2-APB (2-aminoethoxydiphenyl borate; Cayman Chemical, USA), respectively. Stock solutions were made using water, DMSO or ethanol, and were diluted with test solutions before use.
Whole-cell voltage-clamp recording, one of the patch-clamp techniques, was performed with the transfected cell line of Example <1-1> according to the method of Bandel M, et al. (Neuron 41:849-857, 2004).
Particularly, the extracellular solution (140 mM NaCl, 5 mM KCl, 2 mM CaCl2, 1 mM MgCl2, 10 mM HEPES; titrated to pH 7.4 with NaOH) and the pipette solution (140 mM CsCl, 5 mM EGTA, 10 mM HEPES, 2.0 mM MgATP, 0.2 mM NaGTP; titrated to pH 7.2 with CsOH) were used. The potential was held at −60 mV for 250 ms, voltage-ramp pulsed from −80 mV to +80 mV for […] and returned to −60 mV for 250 ms, which was repeated without intersweep. This experiment was repeated 5 times.
The TRPV2 transfected cell line prepared by the method of Example 1 was treated with 100 μM probenecid, 100 μM probenecid+20 μM ruthenium red (Sigma-Aldrich, USA) and 300 μM 2-APB, respectively. […]

mTRPM8 = target: T2, mTRPM8 (Mus musculus, UniProt Q8R4D5); assay: Fluo-3 calcium imaging in TRPM8 transfected HEK293T cell line; details: 100 μM probenecid
T2 construct: expressed in transfected cells; host or cells: HEK293T (ATCC CRL-11268)
Method: as §1, §2
(§3) Particularly, the transfected cell line of Example <3-1> and Example <3-2> was loaded with Fluo-3AM (5 μM; Sigma Aldrich, USA) in the bath solution (140 mM NaCl, 5 mM KCl, 2 mM CaCl2, 1 mM MgCl2, 10 mM HEPES; adjusted to pH 7.4 with NaOH) containing 0.02% pluronic acid (Invitrogen, USA) at 37° C. for 1 hour. […]

rTRPV4 = target: T3, rTRPV4 (Rattus norvegicus, UniProt Q9ERZ8); assay: Fluo-3 calcium imaging in TRPV4 transfected HEK293T cell line; details: 100 μM probenecid
T3 construct: expressed in transfected cells; host or cells: HEK293T (ATCC CRL-11268)
Method: as §1, §2, §3

T3 sequence (Q9ERZ8 whole entry): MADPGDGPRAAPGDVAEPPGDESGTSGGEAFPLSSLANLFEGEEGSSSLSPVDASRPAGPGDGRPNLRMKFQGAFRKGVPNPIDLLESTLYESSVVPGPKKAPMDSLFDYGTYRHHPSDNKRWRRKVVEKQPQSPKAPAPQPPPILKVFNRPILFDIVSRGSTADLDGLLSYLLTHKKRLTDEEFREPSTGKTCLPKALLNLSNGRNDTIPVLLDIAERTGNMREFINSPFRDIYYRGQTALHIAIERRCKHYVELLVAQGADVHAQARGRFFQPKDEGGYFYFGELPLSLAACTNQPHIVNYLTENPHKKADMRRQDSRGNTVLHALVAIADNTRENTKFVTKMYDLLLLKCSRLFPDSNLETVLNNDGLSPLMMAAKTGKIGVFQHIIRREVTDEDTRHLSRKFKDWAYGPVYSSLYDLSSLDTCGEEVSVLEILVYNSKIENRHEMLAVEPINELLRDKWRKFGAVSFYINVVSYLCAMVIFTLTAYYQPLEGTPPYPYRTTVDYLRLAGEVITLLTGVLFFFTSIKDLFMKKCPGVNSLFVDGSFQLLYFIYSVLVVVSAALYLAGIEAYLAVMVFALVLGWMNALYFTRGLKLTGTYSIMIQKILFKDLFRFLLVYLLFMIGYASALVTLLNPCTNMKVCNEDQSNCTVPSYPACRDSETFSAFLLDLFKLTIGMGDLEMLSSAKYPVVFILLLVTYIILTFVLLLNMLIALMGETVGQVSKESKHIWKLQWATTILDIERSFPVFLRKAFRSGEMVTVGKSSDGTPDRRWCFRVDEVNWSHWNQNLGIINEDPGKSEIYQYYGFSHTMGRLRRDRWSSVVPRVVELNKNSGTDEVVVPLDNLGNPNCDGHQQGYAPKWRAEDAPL
T2 sequence (Q8R4D5 whole entry): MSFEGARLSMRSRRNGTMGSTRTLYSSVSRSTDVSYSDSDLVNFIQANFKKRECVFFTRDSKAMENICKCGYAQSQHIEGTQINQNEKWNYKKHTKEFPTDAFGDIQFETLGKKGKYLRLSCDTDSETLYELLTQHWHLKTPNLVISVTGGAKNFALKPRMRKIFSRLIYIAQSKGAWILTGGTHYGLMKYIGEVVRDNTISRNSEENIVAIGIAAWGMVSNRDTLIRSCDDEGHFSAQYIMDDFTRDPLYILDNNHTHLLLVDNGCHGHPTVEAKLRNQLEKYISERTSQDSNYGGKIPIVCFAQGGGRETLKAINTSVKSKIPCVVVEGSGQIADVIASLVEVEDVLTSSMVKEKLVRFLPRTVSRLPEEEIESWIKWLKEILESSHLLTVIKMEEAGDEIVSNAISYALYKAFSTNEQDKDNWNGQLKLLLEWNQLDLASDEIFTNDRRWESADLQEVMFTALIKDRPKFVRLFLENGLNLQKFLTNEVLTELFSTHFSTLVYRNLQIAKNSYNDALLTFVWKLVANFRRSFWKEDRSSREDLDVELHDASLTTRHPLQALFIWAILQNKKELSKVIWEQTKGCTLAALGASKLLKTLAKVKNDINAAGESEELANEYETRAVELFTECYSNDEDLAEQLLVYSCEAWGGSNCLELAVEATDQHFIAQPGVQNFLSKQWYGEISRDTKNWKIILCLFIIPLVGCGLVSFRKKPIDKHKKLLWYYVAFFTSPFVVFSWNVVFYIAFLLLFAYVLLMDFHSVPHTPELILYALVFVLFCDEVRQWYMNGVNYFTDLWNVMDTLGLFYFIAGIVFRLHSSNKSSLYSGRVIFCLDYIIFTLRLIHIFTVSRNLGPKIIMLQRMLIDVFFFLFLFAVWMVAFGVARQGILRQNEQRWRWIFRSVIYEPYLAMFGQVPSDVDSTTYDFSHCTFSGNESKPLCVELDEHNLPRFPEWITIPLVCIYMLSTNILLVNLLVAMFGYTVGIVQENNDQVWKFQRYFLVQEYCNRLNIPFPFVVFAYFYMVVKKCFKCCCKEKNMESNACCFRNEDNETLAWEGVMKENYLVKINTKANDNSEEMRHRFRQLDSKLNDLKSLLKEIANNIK

CCCN(CCC)S(=O)(=O)c1ccc(C(=O)O)cc1 [probenecid]
whole cell current (TRPV2 activation) (rTRPV2): significant increase of current
TRPM8 activation (calcium imaging) (mTRPM8): only TRPV2 was activated; also recorded: not confirmed
TRPV4 activation (calcium imaging) (rTRPV4): only TRPV2 was activated; also recorded: not confirmed
